Measurements as given in patent US8063221B2, “Aminoquinolones as GSK-3 inhibitors” (Kyorin Pharmaceutical Co., Ltd., priority 2006, dated 2011).
Converted amounts (≈) assume the structure as drawn. Read-outs that look alike come from different tables or passages of the source.

Tests used:
[1] = Animal Study 2 (oral glucose tolerance test); parameters: species or system Crlj:CD1 (ICR) mice; details: Mus musculus, read-out: In vivo studies 300 mg/kg (oral glucose tolerance test, % decrease)
Text: The results of in vivo oral glucose tolerance test (Example 39), expressed as % decrease, are presented as follows: […]
Animal Study 2 (Oral Glucose Tolerance Test)
Male Crlj:CD1 (ICR) mice were obtained from Charles River Laboratries Japan (Yokohama, Japan). All mice were given a standard diet (Clea Japan, Tokyo, Japan) and tap water ad libitum. All institutional guidelines for animal care and use were applied in this study. Test compounds were suspended in 0.3% carboxymethyl-cellulose sodium salt (CMC-Na; Sigma, St. Louis, Mo.). After fasting for 15-17 hr, the test compound (300 mg/kg) or vehicle (0.3% CMC-Na) was orally administered to 7-week-old ICR mice. Glucose solution (5 g/kg) was orally administered at 30 min after test compound treatment. Blood samples were collected from tail vein using capillary tubes containing EDTA·2K before test compound treatment, and at 0, 0.5, 1, and 2 hr after glucose load. The blood samples were centrifuged at 2,500×g for 5 min and separated plasma was kept on ice and analyzed in the same day. Plasma glucose levels were determined using the glucose C II-test (Wako Pure Chemical Industries, Osaka, Japan).
The sum of plasma glucose levels at 0.5 and 1 hr after glucose load was compared to that of vehicle treatment, and results were presented as percent decrease.

[2] = biological target: T1, recombinant full-length human GSK3β (Homo sapiens, UniProt P49841); experiment: Luciferase-coupled cell-free GSK3β kinase assay; type: biochemical
T1 construct: recombinant full-length human GSK3β (Upstate); purchased Upstate
T1 sequence (P49841 whole entry): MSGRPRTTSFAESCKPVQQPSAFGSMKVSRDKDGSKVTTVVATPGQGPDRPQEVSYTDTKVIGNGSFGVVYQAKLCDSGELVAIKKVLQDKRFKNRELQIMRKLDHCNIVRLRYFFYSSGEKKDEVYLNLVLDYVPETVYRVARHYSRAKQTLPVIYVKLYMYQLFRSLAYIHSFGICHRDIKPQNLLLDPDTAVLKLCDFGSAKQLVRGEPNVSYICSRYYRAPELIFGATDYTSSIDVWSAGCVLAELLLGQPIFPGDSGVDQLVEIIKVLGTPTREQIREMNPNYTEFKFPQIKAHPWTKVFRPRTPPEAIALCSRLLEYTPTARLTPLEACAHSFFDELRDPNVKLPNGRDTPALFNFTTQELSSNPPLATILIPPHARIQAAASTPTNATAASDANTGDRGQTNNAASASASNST
Outline: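 GSK3β, 10-25 ng, was incubated with compound for 1 h at 30° C in MOPS pH 7.0 buffer containing 62.5 μM phospho-glycogen synthase peptide-2 and 5 μM ATP. Remaining ATP was read by KinaseGlo luminescence, and IC50 was fitted from % inhibition relative to maximal inhibition.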

[3] = system: E. coli, ATCC8739; experiment: Antibacterial activity (MIC), E. coli; type: cell-based; details: Escherichia coli
Outline: (§1)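 MIC, the lowest compound concentration inhibiting bacterial growth in culture medium, determined by dilution method per CLSI M7-A4 guidance; reported in μM.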

[4] = system: S. aureus Smith; experiment: Antibacterial activity (MIC), S. aureus; type: cell-based; details: Staphylococcus aureus
Outline: as §1

[5] = Table 2, 300 mg/kg oral, ICR mice, plasma glucose 0.5 and 1 hr after glucose load vs vehicle
[6] = ATCC8739, Table 2, E. coli ATCC8739, read-out: Antimicrobial MIC [μM] E. Coli
[7] = Table 2, S. aureus Smith, read-out: Antimicrobial MIC [μM] S. aureus
[8] = ATCC8739, Table 1, E. coli ATCC8739, read-out: Antibacterial MIC (μM) E.Coli
[9] = Table 1, read-out: Antibacterial MIC (μM) S. aureus Smith
[10] = ATCC8739, read-out: Antibacterial MIC (μM) E.Coli
[11] = read-out: Antibacterial MIC (μM) S. aureus Smith

Row | Compound | IC50 ([2]; Table 2) [nM] | IC50 ([2]; Table 1) [nM] | MIC [3, 8] [µM] | MIC [4, 9] [µM] | inhibition in vivo at 300 mg/kg [1, 5] [%] | further results
1 | Cc1nn(C)c(C)c1CCCNc1c(F)c(N)c2c(=O)c(C(=O)O)cn3c2c1OC[C@@H]3C [Example 93] |  |  |  |  | > 20 | 
2 | C[C@H]1COc2c(NCCOc3ccc(F)cc3)c(F)c(N)c3c(=O)c(C(=O)O)cn1c23 [Example 101] | < 100 |  |  |  | 10 to 20 | 
3 | C[C@H]1COc2c(NCCNc3ccccn3)c(F)c(N)c3c(=O)c(C(N)=O)cn1c23 [Example 109] | < 100 |  |  |  | 10 to 20 | 
4 | C[C@H]1COc2c(NCCNC3=NS(=O)(=O)c4ccccc43)c(F)c(N)c3c(=O)c(C(=O)O)cn1c23 [Example 113] | < 100 |  |  |  | < 5 | 
5 | C[C@H]1COc2c(NCCCc3ccccn3)c(F)c(N)c3c(=O)c(C#N)cn1c23 [Example 115] | < 100 |  |  |  | < 5 | 
6 | Nc1c(F)c(NCCNc2ccccn2)cc2c1c(=O)c(C(=O)O)cn2CCc1ccccc1 [Example 119] | < 100 |  |  |  | < 5 | MIC [3, 6]: 10 to 50 µM (≈ 4.61 to 23.1 µg/mL); MIC [4, 7]: 10 to 50 µM (≈ 4.61 to 23.1 µg/mL)
7 | CC1(C)CCOc2c(NCCNc3ccccn3)c(F)c(N)c3c(=O)c(C(=O)O)cn1c23 [Example 139] | 100 to 500 |  |  |  | > 20 | MIC [3, 6]: > 50 µM; MIC [4, 7]: > 50 µM
8 | CC1(C)COc2c(NCCNc3ccccn3)c(F)c(N)c3c(=O)c(C(=O)O)cn1c23 [compound 17] |  |  |  |  |  | inhibition in vivo at 300 mg/kg ([1]; po): 10 to 20%
9 | CC(C)C[C@H]1COc2c(NCCCn3cnc4ccccc43)c(F)c(N)c3c(=O)c(C(=O)O)cn1c23 [compound 49] |  |  |  |  |  | inhibition in vivo at 300 mg/kg ([1]; po): 10 to 20%
10 | CC(C)[C@H]1COc2c(NCCCn3ccnc3)c(F)c(N)c3c(=O)c(C(=O)O)cn1c23 [compound 55] |  |  |  |  |  | inhibition in vivo at 300 mg/kg ([1]; po): 10 to 20%
11 | CC(C)[C@H]1COc2c(NCCNc3ccccn3)c(F)c(N)c3c(=O)c(C(=O)O)cn1c23 [compound 61] |  |  |  |  |  | inhibition in vivo at 300 mg/kg ([1]; po): 10 to 20%
12 | Nc1cc(NCCNc2cccc3ccccc23)cc2c1c(=O)ccn2C1CC1 [compound 66] |  | < 100 | 10 to 50 (≈ 3.84 to 19.2 µg/mL) | 10 to 50 (≈ 3.84 to 19.2 µg/mL) |  | 
13 | CCN(CCCNc1c(F)c(N)c2c(=O)c(C(=O)O)cn3c2c1OC[C@@H]3C)c1ccccc1 [compound 76] | < 100 |  |  |  | > 20 | 
14 | CC1(C)COc2c(NCCCn3ccnc3)c(F)c(N)c3c(=O)ccn1c23 [compound 79] | < 100 |  |  |  |  | MIC ([3]; ATCC8739, read-out: Antimicrobial MIC [μM] E. Coli): > 50 µM; MIC ([4]; read-out: Antimicrobial MIC [μM] S. aureus): > 50 µM
15 | COc1c(NCCCc2ccccc2)c(F)c(N)c2c(=O)c(C(=O)O)cn(C3CCCC3)c12 [compound 79] |  | 100 to 500 |  |  |  | MIC [3, 10]: 10 to 50 µM (≈ 4.54 to 22.7 µg/mL); MIC [4, 11]: 10 to 50 µM (≈ 4.54 to 22.7 µg/mL)
16 | C[C@H]1COc2c(NCCCNC(=O)C34CC5CC(CC(C5)C3)C4)c(F)c(N)c3c(=O)c(C(=O)O)cn1c23 [compound 80] | < 100 |  |  |  | 5 to 10 | 
17 | COc1c(NCCCn2cnc3ccccc32)c(F)c(N)c2c(=O)c(C(=O)O)cn(C3CC3)c12 [compound 83] |  | < 100 |  |  |  | MIC [3, 10]: 10 to 50 µM (≈ 4.65 to 23.3 µg/mL); MIC [4, 11]: 0.5 to 10 µM (≈ 0.233 to 4.65 µg/mL)
18 | COc1c(NCCc2cccnc2)c(F)c(N)c2c(=O)c(C(=O)O)cn(C3CC3)c12 [compound 85] |  | > 1000 |  |  |  | MIC [3, 10]: 0.5 to 10 µM (≈ 0.206 to 4.12 µg/mL); MIC [4, 11]: < 0.5 µM

Now from value to compound, other results behind:

Row | IC50 ([2]; Table 2) [nM] | IC50 ([2]; Table 1) [nM] | MIC [3, 8] [µM] | MIC [4, 9] [µM] | Compound | inhibition in vivo at 300 mg/kg [1, 5] [%] | further results
19 | 100 to 500 |  |  |  | C[C@H]1COc2c(NCCCn3ccnc3)c(F)c(N)c3c(=O)c(C(N)=O)cn1c23 [Example 107] | 10 to 20 | 
20 | < 100 |  |  |  | C[C@H]1COc2c(NCCS(=O)(=O)N3CCCCC3)c(F)c(N)c3c(=O)c(C(=O)O)cn1c23 [Example 112] | < 5 | 
21 | < 100 |  |  |  | C[C@H]1COc2c(NCCCn3ccnc3)c(F)c(N)c3c(=O)c(C#N)cn1c23 [Example 114] | > 20 | 
22 | < 100 |  |  |  | C[C@H]1COc2c(NCCNc3ccccn3)c(F)c(N)c3c(=O)c(C(=O)O)cn1c23 [compound 18] | 10 to 20 | MIC [3, 6]: 0.5 to 10 µM (≈ 0.207 to 4.13 µg/mL); MIC [4, 7]: 0.5 to 10 µM (≈ 0.207 to 4.13 µg/mL)
23 | < 100 |  |  |  | CC(C)[C@@H]1COc2c(NCCCn3cnc4ccccc43)c(F)c(N)c3c(=O)c(C(=O)O)cn1c23 [compound 65] |  | MIC [3, 6]: 0.5 to 10 µM (≈ 0.24 to 4.8 µg/mL); MIC [4, 7]: 0.5 to 10 µM (≈ 0.24 to 4.8 µg/mL)
24 |  | 100 to 500 | 10 to 50 (≈ 4.82 to 24.1 µg/mL) | 10 to 50 (≈ 4.82 to 24.1 µg/mL) | Nc1c(F)c(NCCCc2ccccc2)c(F)c2c1c(=O)c(C(=O)O)cn2CCCn1ccnc1 [compound 65] |  | 
25 |  | < 100 | 10 to 50 (≈ 4.25 to 21.3 µg/mL) | 0.5 to 10 (≈ 0.213 to 4.25 µg/mL) | COc1c(NCCCc2ccccc2)c(F)c(N)c2c(=O)c(C(=O)O)cn(C3CC3)c12 [compound 67] |  | 
26 | < 100 |  |  |  | C[C@H]1COc2c(NCCCN3CCCc4ccccc43)c(F)c(N)c3c(=O)c(C(=O)O)cn1c23 [compound 67] | 10 to 20 | 
27 |  | 500 to 1000 | 10 to 50 (≈ 4.12 to 20.6 µg/mL) | 0.5 to 10 (≈ 0.206 to 4.12 µg/mL) | COc1c(NCCc2ccncc2)c(F)c(N)c2c(=O)c(C(=O)O)cn(C3CC3)c12 [compound 68] |  | 
28 |  | < 100 | 10 to 50 (≈ 4.15 to 20.8 µg/mL) | 0.5 to 10 (≈ 0.208 to 4.15 µg/mL) | COc1c(NCCCn2ccnc2)c(F)c(N)c2c(=O)c(C(=O)O)cn(C3CC3)c12 [compound 69] |  | 
29 | < 100 |  |  |  | C[C@H]1COc2c(NCCCc3ccccn3)c(F)c(N)c3c(=O)c(C(=O)O)cn1c23 [compound 70] | > 20 | 
30 | < 100 |  |  |  | C[C@H]1COc2c(NCCCc3ccc(F)cc3)c(F)c(N)c3c(=O)c(C(=O)O)cn1c23 [compound 72] | > 20 | 
31 |  | < 100 | 10 to 50 (≈ 3.97 to 19.9 µg/mL) | 10 to 50 (≈ 3.97 to 19.9 µg/mL) | Nc1c(F)c(NCCCc2ccccc2)c(F)c2c1c(=O)ccn2C1CCCC1 [compound 72] |  | 
32 |  | < 100 | > 50 | > 50 | Nc1c(F)c(NCCc2ccncc2)c(F)c2c1c(=O)ccn2C1CCCC1 [compound 73] |  | 
33 |  | < 100 | > 50 | > 50 | Nc1c(F)c(NCCCn2ccnc2)c(F)c2c1c(=O)ccn2C1CCCC1 [compound 74] |  | 
34 |  | 100 to 500 | > 50 | > 50 | CC(C)OCCCNc1c(F)c(N)c2c(=O)ccn(C3CCCC3)c2c1F [compound 75] |  | 
35 |  | < 100 | > 50 | > 50 | Nc1c(F)c(NCCNc2ccccn2)c(F)c2c1c(=O)ccn2C1CCCC1 [compound 76] |  | 
36 |  | > 1000 | 10 to 50 (≈ 4.55 to 22.8 µg/mL) | 0.5 to 10 (≈ 0.228 to 4.55 µg/mL) | COc1c(NCCNc2ccccn2)c(F)c(N)c2c(=O)c(C(=O)O)cn(C3CCCC3)c12 [compound 77] |  | 
37 |  | 500 to 1000 | > 50 | > 50 | COc1c(NCCCn2ccnc2)c(F)c(N)c2c(=O)c(C(=O)O)cn(C3CCCC3)c12 [compound 78] |  | 
38 |  | > 1000 | > 50 | 10 to 50 (≈ 4.4 to 22 µg/mL) | COc1c(NCCc2ccncc2)c(F)c(N)c2c(=O)c(C(=O)O)cn(C3CCCC3)c12 [compound 80] |  | 
39 |  | < 100 | 10 to 50 (≈ 4.11 to 20.6 µg/mL) | 0.5 to 10 (≈ 0.206 to 4.11 µg/mL) | CC1COc2c(NCCCc3ccccc3)c(F)c(N)c3c(=O)c(C(=O)O)cn1c23 (centres unmarked) [compound 81] |  | 
40 |  | > 1000 | 10 to 50 (≈ 4.41 to 22.1 µg/mL) | 10 to 50 (≈ 4.41 to 22.1 µg/mL) | COc1c(NCCCOc2ccccc2)c(F)c(N)c2c(=O)c(C(=O)O)cn(C3CC3)c12 [compound 82] |  | 
41 |  | 100 to 500 | 10 to 50 (≈ 4.26 to 21.3 µg/mL) | 0.5 to 10 (≈ 0.213 to 4.26 µg/mL) | COc1c(NCCNc2ccccc2)c(F)c(N)c2c(=O)c(C(=O)O)cn(C3CC3)c12 [compound 84] |  | 
42 |  | < 100 | 0.5 to 10 (≈ 0.207 to 4.13 µg/mL) | 0.5 to 10 (≈ 0.207 to 4.13 µg/mL) | CC1COc2c(NCCNc3ccccn3)c(F)c(N)c3c(=O)c(C(=O)O)cn1c23 (centres unmarked) [compound 90] |  | 
